Data published in paper PMC2956696, “A novel antiangiogenic peptide derived from hepatocyte growth factor inhibits neovascularization in vitro and in vivo” (Molecular Vision, 2010).
No end group written: not given here.

Legend:
RF/6A cells [1] = experiment: Cell viability with H-RN alone (MTS); assay type: cell-based, rhesus macaque; details: any concentration tested, vs culture medium group
Procedure: A cell proliferation assay was performed as described previously. A colorimetric MTS (3-(4,5-dimeth-ylthiazol-2-yl)-5-(3-carboxymethoxyphenol)-2-(4-sulphophenyl)-2H-tetrazolium) assay (CellTiter 96 AQ; Promega, Madison, WI) was used according to the manufacturer’s instructions. Briefly, cells were seeded onto a 96-well plate (4.8×10^3 cells/well). After 24 h, cells were serum-starved overnight, and then treated with 100 ng/ml VEGF and various doses of H-RN or H-FT (0, 1 μM, 10 μM, 100 μM, or 1 mM) in 100 μl of serum-free medium for an additional 24 h. In positive control group, 100 μl of serum-free medium contains 100 ng/ml VEGF and 0.25 or 2.5 mg/ml bevacizumab (Avastin®, Hoffmann-La Roche Ltd., Basel, Switzerland), and the negative control group contains 100 ng/ml VEGF and a scrambled peptide at concentrations of 1 μM, 10 μM, 100 μM, or 1 mM. […] The absorbance at 490 nm was recorded using a microplate reader (Bio-Rad, Model 680, Hercules, CA). […]
RF/6A cells were exposed for 24 h to VEGF (100 ng/ml), or to VEGF combined with various concentrations of bevacizumab, H-RN, or H-FT. […] At the highest dose of H-RN tested (1 mM), the mean absorbance value was very close to that of the control group (0.735 versus 0.673), though this inhibitory effect was not as strong as that of 2.5 mg/ml bevacizumab (0.735 versus 0.615). […]

RF/6A cells [2] = experiment: VEGF-stimulated cell proliferation assay (MTS); assay type: cell-based, rhesus macaque; details: 24 h
Procedure: A cell proliferation assay was performed as described previously. A colorimetric MTS (3-(4,5-dimeth-ylthiazol-2-yl)-5-(3-carboxymethoxyphenol)-2-(4-sulphophenyl)-2H-tetrazolium) assay (CellTiter 96 AQ; Promega, Madison, WI) was used according to the manufacturer’s instructions. Briefly, cells were seeded onto a 96-well plate (4.8×10^3 cells/well). After 24 h, cells were serum-starved overnight, and then treated with 100 ng/ml VEGF and various doses of H-RN or H-FT (0, 1 μM, 10 μM, 100 μM, or 1 mM) in 100 μl of serum-free medium for an additional 24 h. In positive control group, 100 μl of serum-free medium contains 100 ng/ml VEGF and 0.25 or 2.5 mg/ml bevacizumab (Avastin®, Hoffmann-La Roche Ltd., Basel, Switzerland), and the negative control group contains 100 ng/ml VEGF and a scrambled peptide at concentrations of 1 μM, 10 μM, 100 μM, or 1 mM. After completion of the treatment, 20 μl of the 3-(4,5-dimethylthiazol-2-yl)-5-(3-carboxymethoxyphenol)-2-(4-sulphophenyl)-2H-tetrazolium (MTS) reagent were pipetted into each well and incubated for 4 h. The absorbance at 490 nm was recorded using a microplate reader (Bio-Rad, Model 680, Hercules, CA). Each group was tested at least in triplicate, and the assays were repeated a minimum of three times.

RF/6A cells [3] = experiment: VEGF-driven cell migration assay (Transwell); assay type: cell-based, rhesus macaque; details: 100 ng/ml VEGF, 24 h, H-FT 1 nM to 1 µM, bevacizumab both concentrations
Procedure: A cell migration assay was performed as described previously, with modification as below. Briefly, RF/6A cells were starved overnight, trypsinized, and suspended at a final concentration of 5×10^5 cells/ml. Various concentrations of bevacizumab or peptides were preincubated with the cells for 30 min at 37 °C before seeding into the Transwell chambers (pretreated by culture medium, 10 mm diameter, 8.0 µm pore size; Corning Inc., New York, NY), the 5×10^4 cells were added to each upper chamber. VEGF (100 ng/ml) was placed into the lower chamber. The assembled cell-culture insert chamber was then incubated at 37 °C for 24 h. After removing the nonmigrating cells in the upper chambers with a cotton swab, migrated cells on the lower surface of the porous membrane were fixed, stained with Gram stain, and photographed under a light microscope (Olympus, Tokyo, Japan). Five random fields (×200) were chosen in each insert, and the cell number was quantified manually. Each experiment was repeated three times.

RF/6A cells [4] = experiment: Endothelial cell tube formation assay on Matrigel; assay type: cell-based, rhesus macaque; details: 100 ng/ml VEGF, 6 h, peptides 100 nM-1 mM, bevacizumab both concentrations
Procedure: A tube formation assay was performed as previously described. The 96 well culture plate were coated with Matrigel™ (BD Biosciences, Bedford, MA) according to the manufacturer’s instructions. RF/6A cells (2.5×10^4 in number) were preincubated with various concentrations of bevacizumab or peptides (100 nM–1 mM) before being seeded on coated plates in a serum-free medium containing VEGF 100 ng/ml, and then incubated at 37 °C for 6 h. Tube formation was observed using an inverted phase contrast microscope (Olympus, Tokyo, Japan). Images were captured with a digital camera (Olympus). The degree of tube formation was quantified by measuring the length of tubes in three randomly chosen fields (with magnification of ×100) from each well using the Image-Pro Plus Program (version 5.1; Media Cybernetics, Inc.). Each group was tested in triplicate. Each experiment was repeated three times.

Substance | Peptide remaining after 48 h [%] | Cell viability with peptide alone (in words) (RF/6A cells [1]) | Inhibition of VEGF-induced cell proliferation (in words) (RF/6A cells [2]; 100 ng/ml VEGF, peptides 1 μM-1 mM, bevacizumab 2.5 mg/ml) | Mean absorbance value (490 nm, MTS), VEGF-induced proliferation (RF/6A cells [2]; 2.5 mg/ml bevacizumab + 100 ng/ml VEGF, serum-free medium, control group 0.673) | Inhibition of VEGF-induced cell migration (in words) (RF/6A cells [3]) | Inhibition of VEGF-induced tube formation (in words) (RF/6A cells [4])
H-FTSNPEVRYEV-OH | > 90 | – | – | – | – | –
RNPRGEEGGPW [H-RN] | > 90 | cell viability was not affected | – | – | – | –
bevacizumab | – | – | strongly inhibited | 0.615 | effectively inhibited cell migration | strongly inhibited
